In patent publication US20150265661A1, “PREBIOTIC EFFECT OF SIALYLLACTOSE” (Trustees of Boston College, priority 2012, published 2015):

Columns and labels:
[1] = tested on: Bifidobacteria sp. (ten strains of Table 2); assay: Growth (OD 600 nm) and pH of bacterial strains in ZMB1 with oligosaccharide as sole carbon source; format: cell-based, Bifidobacterium longum, Bifidobacterium infantis; settings: for utilization as a primary carbon source by ten different Bifidobacteria: concentrations indicated in FIGS. 4 and 5; for numbers of bifidobacteria: in vitro fermentation, vs control; for prebiotic effects on Bifidobacteria strains: sialyllactose alone, FIG. 5
Escherichia coli W3110 = assay: as above; format: cell-based; settings: 48 h, FIG. 4
[2] = tested on: Clostridium perfringens ATCC 13124; format: cell-based; settings: 48 h, sole carbon source, FIG. 4

Row | Compound | utilization as a primary carbon source by ten different Bifidobacteria [1] | numbers of bifidobacteria [1] | prebiotic effects on Bifidobacteria strains [1] | growth of the Bifidobacteria sp. ([1]; 48 h, sole carbon source (2'-FL 2 g/L, 3-FL 2 g/L, LDFT 1 g/L), vs control without substrate) | pH in the culture of Bifidobacteria ([1]; 48 h, sole carbon source, vs control without substrate) | growth of E. coli (Escherichia coli W3110) | pH in the culture of E. coli (Escherichia coli W3110) | growth of C. perfringens [2] | pH in the culture of C. perfringens [2]
1 | CC(=O)N[C@H]1[C@H]([C@H](O)[C@H](O)CO)O[C@@](O[C@H]2[C@@H](O)[C@@H](CO)O[C@@H](O[C@H]3[C@H](O)[C@@H](O)C(O)O[C@@H]3CO)[C@@H]2O)(C(=O)O)C[C@@H]1O (some centres unmarked) [3′-SL, 3′-sialyllactose] | could utilize | significantly higher | showed prebiotic effects on some Bifidobacteria strains | – | – | – | – | – | –
2 | CC(=O)N[C@H]1[C@H]([C@H](O)[C@H](O)CO)O[C@@](OC[C@H]2O[C@@H](O[C@H]3[C@H](O)[C@@H](O)[C@H](O)O[C@@H]3CO)[C@H](O)[C@@H](O)[C@H]2O)(C(=O)O)C[C@@H]1O [6′-SL, 6′-sialyllactose] | could utilize | significantly higher | showed prebiotic effects on some Bifidobacteria strains | – | – | – | – | – | –
3 | lactodifucotetraose [LDFT] | could utilize | significantly higher | – | significantly increase | decrease the pH | no significant increase | no significant increase on its growth and decrease in pH | no significant increase | no significant increase on its growth and decrease in pH
